# Data: patent US11566007B2, “Ras inhibitors” (Revolution Medicines, Inc., priority 2019, dated 2023)
# Columns and labels:
# [1] = target: KRAS G12D (Homo sapiens (Human), UniProt P01116+P62937, G12D); assay: Ras-Raf (BRAF RBD) disruption / FRET / MOA assay, KRAS G12D; assay type: biochemical; conditions: Ras-Raf disruption/FRET/MOA assay; class symbols; read-out: KRAS G12D FRET data IC50
# Procedure: (§1) The purpose of this biochemical assay is to measure the ability of test compounds to facilitate ternary complex formation between a nucleotide-loaded Ras isoform and cyclophilin A; the resulting ternary complex disrupts binding to a BRAF^RBD construct, inhibiting Ras signaling through a RAF effector.
# (§2) Compound is present in plate wells as a 10-point 3-fold dilution series starting at a final concentration of 30 μM. After incubation at 25° C. for 3 hours, a mixture of Anti-His Eu-W1024 and anti-GST allophycocyanin is then added to assay sample wells at final concentrations of 10 nM and 50 nM, respectively, and the reaction incubated for an additional 1.5 hours. […] Compounds that facilitate disruption of a Ras:RAF complex are identified as those eliciting a decrease in the TR-FRET ratio relative to DMSO control wells.
# (§3) This protocol may also be executed substituting other Ras proteins or nucleotides.
# (§4) The purpose of this biochemical assay was to measure the ability of test compounds to facilitate ternary complex formation between a nucleotide-loaded K-Ras isoform and Cyclophilin A; the resulting ternary complex disrupts binding to a BRAF^RBD construct, inhibiting K-Ras signaling through a RAF effector. Data is reported as IC50 values.
# as §2, with “Compound was” for “Compound is”, “allophycocyanin was” for “allophycocyanin is”, “a K-Ras:RAF” for “a Ras:RAF”, “complex were” for “complex are”
# [2] = target: KRAS G12S (Homo sapiens (Human), UniProt P01116+P62937, G12S); assay: Ras-Raf (BRAF RBD) disruption / FRET / MOA assay, KRAS G12S; assay type: biochemical; conditions: Ras-Raf disruption/FRET/MOA assay; class symbols; read-out: KRAS G12S FRET data IC50
# Sequence of KRAS G12S (P01116-2 other isoform, or with tags, fused parts or gaps G12S): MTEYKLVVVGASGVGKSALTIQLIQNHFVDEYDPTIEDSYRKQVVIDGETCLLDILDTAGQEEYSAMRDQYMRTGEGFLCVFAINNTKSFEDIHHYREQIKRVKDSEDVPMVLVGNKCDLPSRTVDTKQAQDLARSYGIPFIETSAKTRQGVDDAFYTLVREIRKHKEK
# Sequence of KRAS G12S (P62937 whole entry): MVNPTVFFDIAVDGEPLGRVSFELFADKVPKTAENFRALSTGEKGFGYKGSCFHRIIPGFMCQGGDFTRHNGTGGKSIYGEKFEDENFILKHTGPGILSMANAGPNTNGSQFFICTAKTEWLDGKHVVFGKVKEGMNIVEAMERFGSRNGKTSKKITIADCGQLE
# Procedure: as §1, §2, §3, §4
# as §2, with “Compound was” for “Compound is”, “allophycocyanin was” for “allophycocyanin is”, “a K-Ras:RAF” for “a Ras:RAF”, “complex were” for “complex are”
# Sequence of KRAS G12D (P01116-2 other isoform, or with tags, fused parts or gaps G12D): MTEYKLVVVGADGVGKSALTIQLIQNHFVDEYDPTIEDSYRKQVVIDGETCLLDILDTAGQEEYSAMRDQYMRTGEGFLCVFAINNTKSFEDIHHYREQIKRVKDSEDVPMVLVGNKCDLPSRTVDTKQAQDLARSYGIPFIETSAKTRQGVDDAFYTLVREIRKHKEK
# Sequence of KRAS G12D (P62937 whole entry, canonical isoform): as the sequence (P62937 whole entry) above
Structure (SMILES),IC50 [1],IC50 [2]
"C=CC(=O)N1CC(C(=O)N(C)[C@H](C(=O)N[C@H]2Cc3cc(O)cc(c3)-c3ccc4c(c3)c(c(-c3cccnc3COC)n4CC)CC(C)(C)COC(=O)[C@@H]3CCCN(N3)C2=O)C(C)C)C1 (single isomer, unassigned) [Example A070]",1 to 10 µM,0.1 to 1 µM
C=CC(=O)N1CC[C@H](C(=O)N(C)[C@H](C(=O)N[C@H]2Cc3cc(O)cc(c3)-c3ccc4c(c3)c(c(-c3ccccc3CN(C)C)n4CC)CC(C)(C)COC(=O)[C@@H]3CCCN(N3)C2=O)C(C)C)C1 [Example A005],1 to 10 µM,0.1 to 1 µM
C=CC(=O)N1CC[C@H](C(=O)N(C)[C@H](C(=O)N[C@H]2Cc3cc(O)cc(c3)-c3ccc4c(c3)c(c(-c3ccccc3CCOC)n4CC)CC(C)(C)COC(=O)[C@@H]3CCCN(N3)C2=O)C2CCOCC2)C1 [Example A006],> 10 µM,1 to 10 µM
C=CC(=O)N1CC[C@H](C(=O)N(C)[C@H](C(=O)N[C@H]2Cc3cc(OC(=O)CN)cc(c3)-c3ccc4c(c3)c(c(-c3ccccc3CCOC)n4CC)CC(C)(C)COC(=O)[C@@H]3CCCN(N3)C2=O)C(C)C)C1 [Example A008],> 10 µM,1 to 10 µM
C=CC(=O)N1CC[C@H](C(=O)N(C)[C@H](C(=O)N[C@H]2Cc3cc(cc(O)c3F)-c3ccc4c(c3)c(c(-c3ccccc3CCOC)n4CC)CC(C)(C)COC(=O)[C@@H]3CCCN(N3)C2=O)C(C)C)C1 [Example A009],> 10 µM,> 10 µM
C=CC(=O)N1CC[C@H](C(=O)N(C)[C@H](C(=O)N[C@H]2Cc3cc(O)cc(c3)-c3ccc4c(c3)c(c(-c3ccc(CN5CCCC5)cc3)n4CC)CC(C)(C)COC(=O)[C@@H]3CCCN(N3)C2=O)C(C)C)C1 [Example A010],> 10 µM,1 to 10 µM
C=CC(=O)N1CCCN(C(=O)N(C)[C@H](C(=O)N[C@H]2Cc3cc(O)cc(c3)-c3ccc4c(c3)c(c(-c3ccccc3CCOC)n4CC)CC(C)(C)COC(=O)[C@@H]3CCCN(N3)C2=O)C(C)C)CC1 [Example A013],> 10 µM,1 to 10 µM
C=CC(=O)N1CCC(C(=O)N(C)[C@H](C(=O)N[C@H]2Cc3cc(O)cc(c3)-c3ccc4c(c3)c(c(-c3ccccc3CCOC)n4CC)CC(C)(C)COC(=O)[C@@H]3CCCN(N3)C2=O)C(C)C)CC1 [Example A014],> 10 µM,1 to 10 µM
C=CC(=O)N1CC[C@H](C(=O)N(C)[C@H](C(=O)N[C@H]2Cc3cc(O)cc(c3)-c3ccc4c(c3)c(c(-c3ccccc3OC)n4CC)CC(C)(C)COC(=O)[C@@H]3CCCN(N3)C2=O)C(C)C)C1 [Example A017],> 10 µM,1 to 10 µM
C=CC(=O)N1CCN(C(=O)N(C)[C@H](C(=O)N[C@H]2Cc3cc(O)cc(c3)-c3ccc4c(c3)c(c(-c3ccccc3CCOC)n4CC)CC(C)(C)COC(=O)[C@@H]3CCCN(N3)C2=O)C(C)C)CC1 [Example A018],> 10 µM,1 to 10 µM
C=CC(=O)N1CCC(F)(C(=O)N(C)[C@H](C(=O)N[C@H]2Cc3cc(O)cc(c3)-c3ccc4c(c3)c(c(-c3ccccc3CN(C)C)n4CC)CC(C)(C)COC(=O)[C@@H]3CCCN(N3)C2=O)C(C)C)CC1 [Example A020],> 10 µM,1 to 10 µM
C=CC(=O)N1CC[C@H](C(=O)N(C)[C@H](C(=O)N[C@H]2Cc3cc(O)cc(c3)-c3ccc4c(c3)c(c(-c3ccc(CC(=O)O)cc3)n4CC)CC(C)(C)COC(=O)[C@@H]3CCCN(N3)C2=O)C(C)C)C1 [Example A021],> 10 µM,> 10 µM
C=CC(=O)N1CC[C@H](C(=O)N(C)[C@H](C(=O)N[C@H]2Cc3cc(O)cc(c3)-c3ccc4c(c3)c(c(-c3ccccc3[C@H](C)OC)n4CC)CC(C)(C)COC(=O)[C@@H]3CCCN(N3)C2=O)C(C)C)C1 [Example A022],1 to 10 µM,0.1 to 1 µM
C=CC(=O)N1CC[C@H](C(=O)N(C)[C@H](C(=O)N[C@H]2Cc3cccc(c3)-c3ccc4c(c3)c(c(-c3ccccc3CCOC)n4CC)CC(C)(C)COC(=O)[C@@H]3CCCN(N3)C2=O)C(C)C)C1 [Example A024],> 10 µM,> 10 µM
C=CC(=O)N1CC[C@H](C(=O)N(C)[C@H](C(=O)N[C@H]2Cc3cc(O)cc(c3)-c3ccc4c(c3)c(c(-c3ccccc3COC)n4CC)CC(C)(C)COC(=O)[C@@H]3CCCN(N3)C2=O)C2CCCC2)C1 [Example A027],> 10 µM,0.1 to 1 µM
C=CC(=O)N1CC[C@H](C(=O)N(C)[C@H](C(=O)N[C@H]2Cc3cc(O)cc(c3)-c3ccc4c(c3)c(c(-c3ccccc3[C@@H](C)OC)n4CC)CC(C)(C)COC(=O)[C@@H]3CCCN(N3)C2=O)C(C)C)C1 [Example A029],1 to 10 µM,0.1 to 1 µM

Structure (SMILES),IC50 [1],IC50 [2]
C=CC(=O)N1CC[C@H](C(=O)N(C)[C@H](C(=O)N[C@H]2Cc3cc(O)cc(c3)-c3ccc4c(c3)c(c(-c3cccc(CN(C)C)c3)n4CC)CC(C)(C)COC(=O)[C@@H]3CCCN(N3)C2=O)C(C)C)C1 [Example A030],> 10 µM,1 to 10 µM
C=CC(=O)N1CC2(CCN([C@H](C(=O)N[C@H]3Cc4cc(O)cc(c4)-c4ccc5c(c4)c(c(-c4ccccc4CCOC)n5CC)CC(C)(C)COC(=O)[C@@H]4CCCN(N4)C3=O)C(C)C)C2=O)C1 [Example A031],> 10 µM,1 to 10 µM
C=CC(=O)N1CC[C@H](C(=O)N(C)[C@H](C(=O)N[C@H]2Cc3cc(OC(=O)CCC(=O)O)cc(c3)-c3ccc4c(c3)c(c(-c3ccccc3CCOC)n4CC)CC(C)(C)COC(=O)[C@@H]3CCCN(N3)C2=O)C(C)C)C1 [Example A032],> 10 µM,–
C=CC(=O)N1CC[C@H](C(=O)N(C)[C@H](C(=O)N[C@H]2Cc3cc(O)cc(c3)-c3ccc4c(c3)c(c(-c3ccccc3CCOC)n4C(C)(C)C#N)CC(C)(C)COC(=O)[C@@H]3CCCN(N3)C2=O)C(C)C)C1 [Example A034],1 to 10 µM,–
C=CC(=O)N1CC[C@H](C(=O)N(C)[C@H](C(=O)N[C@H]2Cc3cc(O)cc(c3)-c3ccc4c(c3)c(c(-c3ccc(C5CCN(C)CC5)cc3)n4CC)CC(C)(C)COC(=O)[C@@H]3CCCN(N3)C2=O)C(C)C)C1 [Example A039],1 to 10 µM,1 to 10 µM
C=CC(=O)N1CC[C@H](C(=O)N(C)[C@H](C(=O)N[C@H]2Cc3cc(O)cc(c3)-c3ccc4c(c3)c(c(-c3ccc5c(c3)CCN(C)C5)n4CC)CC(C)(C)COC(=O)[C@@H]3CCCN(N3)C2=O)C(C)C)C1 [Example A040],> 10 µM,1 to 10 µM
C=CC(=O)N1C[C@H](C)[C@H](C(=O)N(C)[C@H](C(=O)N[C@H]2Cc3cc(O)cc(c3)-c3ccc4c(c3)c(c(-c3ccccc3CCOC)n4CC)CC(C)(C)COC(=O)[C@@H]3CCCN(N3)C2=O)C(C)C)C1 [Example A041],> 10 µM,0.1 to 1 µM
C=CC(=O)N1CC[C@H](C(=O)N(C)[C@H](C(=O)N[C@H]2Cc3cc(N)cc(c3)-c3ccc4c(c3)c(c(-c3ccccc3COC)n4CC)CC(C)(C)COC(=O)[C@@H]3CCCN(N3)C2=O)C(C)C)C1 [Example A042],> 10 µM,> 10 µM
C=CC(=O)N1C[C@H](C)[C@H](C(=O)N(C)[C@H](C(=O)N[C@H]2Cc3cc(O)cc(c3)-c3ccc4c(c3)c(c(-c3ccccc3CN(C)C)n4CC)CC(C)(C)COC(=O)[C@@H]3CCCN(N3)C2=O)C2CCCC2)C1 [Example A043],1 to 10 µM,0.1 to 1 µM
C=CC(=O)N1CC[C@H](C(=O)N(C)[C@H](C(=O)N[C@H]2Cc3cc(O)cc(c3)-c3ccc4c(c3)c(c(-c3cccnc3COCC)n4CC)CC(C)(C)COC(=O)[C@@H]3CCCN(N3)C2=O)C(C)C)C1 [Example A044],1 to 10 µM,0.1 to 1 µM
C=CC(=O)N1CC[C@H](C(=O)N(C)[C@H](C(=O)N[C@H]2Cc3cc(O)cc(c3)-c3ccc4c(c3)c(c(-c3cncc(C#N)c3)n4CC)CC(C)(C)COC(=O)[C@@H]3CCCN(N3)C2=O)C(C)C)C1 [Example A062],> 10 µM,–
C=CC(=O)N1CC[C@H](C(=O)N(C)[C@H](C(=O)N[C@H]2Cc3cc(O)cc(c3)-c3ccc4c(c3)c(c(-c3cnccc3[C@H](C)OC)n4CC)CC(C)(C)COC(=O)[C@@H]3CCCN(N3)C2=O)C(C)C)C1 [Example A076],0.1 to 1 µM,–
C=CC(=O)N1CC[C@H](C(=O)N(C)[C@H](C(=O)N[C@H]2Cc3cc(O)cc(c3)-c3ccc4c(c3)c(c(-c3cc(F)cnc3COC)n4CC)CC(C)(C)COC(=O)[C@@H]3CCCN(N3)C2=O)C(C)C)C1 [Example A082],1 to 10 µM,–
C=CC(=O)N1CC[C@H](C(=O)N(C)[C@H](C(=O)N[C@H]2Cc3cc(O)cc(c3)-c3ccc4c(c3)c(c(-c3cnccc3COC)n4CC)CC(C)(C)COC(=O)[C@@H]3CCCN(N3)C2=O)C(C)C)C1 [Example A091],1 to 10 µM,–
CCn1c(-c2cccnc2COC)c2c3cc(ccc31)-c1cc(O)cc(c1)C[C@H](NC(=O)[C@H](C(C)C)N(C)C(=O)[C@H]1CCN(C(=O)C#CCN(C)C)C1)C(=O)N1CCC[C@H](N1)C(=O)OCC(C)(C)C2 [Example A096],1 to 10 µM,–
C=CC(=O)N1CC[C@H](C(=O)N(C)[C@H](C(=O)N[C@H]2Cc3cc(O)cc(c3)-c3ccc4c(c3)c(c(-c3ccccc3CO)n4CC)CC(C)(C)COC(=O)[C@@H]3CCCN(N3)C2=O)C(C)C)C1 [Examples A004],> 10 µM,–
